Data: US20230065953A1, “NOVEL HETEROARYL-TRIAZOLE COMPOUNDS AS PESTICIDES” (Bayer Aktiengesellschaft, priority 2019, published 2023)

What was measured:
Format in all cases: in vivo
[1] = tested on: green peach aphid (Myzus persicae); assay: Myzus persicae spray test; conditions: foliar, 120 h, Chinese cabbage leaf disks, after 5 days
Method: Myzus persicae—Spray Test • Solvent: 78.0 parts by weight acetone • 1.5 parts by weight dimethylformamide • Emulsifier: alkylarylpolyglycol ether
(§1) To produce a suitable preparation of active compound, 1 part by weight of active compound is mixed with the stated amount of solvents and is diluted with water, containing an emulsifier concentration of 1000 ppm, to the desired concentration. Further test concentrations are prepared by dilution with emulsifier containing water.
Chinese cabbage (Brassica pekinensis) leaf disks infected with all instars of the green peach aphid (Myzus persicae), are sprayed with a preparation of the active ingredient of the desired concentration.
After 5 days mortality in % is determined. 100% means all aphids have been killed and 0% means none of the aphids have been killed.

[2] = tested on: fall armyworm larvae (Spodoptera frugiperda); assay: Spodoptera frugiperda spray test (maize leaf sections); conditions: 168 h
Method: Spodoptera frugiperda—Spray Test • Solvent: 78.0 parts by weight acetone • 1.5 parts by weight dimethylformamide • Emulsifier: alkylarylpolyglycol ether
as §1
Maize (Zea mays) leaf sections are sprayed with a preparation of the active ingredient of the desired concentration. Once dry, the leaf sections are infested with fall armyworm larvae (Spodoptera frugiperda).
After 7 days mortality in % is determined. 100% means all caterpillars have been killed and 0% means none of the caterpillars have been killed.

[3] = tested on: larvae of the southern green stink bug (Nezara viridula); assay: Nezara viridula spray test; conditions: in Hordeum vulgare, 96 h
Method: Nezara viridula—Spray Test • Solvent: 78.0 parts by weight of acetone • 1.5 parts by weight of dimethylformamide • Emulsifier: alkylarylpolyglycol ether
To produce a suitable preparation of active compound, 1 part by weight of active compound is mixed with the stated amount of solvent, and the concentrate is diluted with water, containing an emulsifier concentration of 1000 ppm, to the desired concentration. Further test concentrations are prepared by dilution with emulsifier containing water.
Barley plants (Hordeum vulgare) are sprayed with a test solution containing the desired concentration of the active ingredient and are infested with larvae of the southern green stink bug (Nezara viridula).
After 4 days mortality in % is determined. 100% means all the stink bugs have been killed; 0% means none of the stink bugs have been killed.

[4] = tested on: Rhipicephalus microplus larvae (strain Parkhurst, resistant against synthetic pyrethroids); assay: Rhipicephalus (Boophilus) microplus in-vitro contact test, larval cattle tick; conditions: 5 μg/cm^2 (=500 g/ha), after 48 hours, read-out: efficacy (larvae dead or moribund)
Method: Rhipicephalus (Boophilus) Microplus—In-Vitro Contact Tests Larval Cattle Tick (Strain Parkhurst, Resistant Against Synthetic Pyrethroids)
9 mg compound is solved in 1 mL acetone and diluted with acetone to the desired concentration. 250 μL of the test solution is filled in 25 mL glass test tubes and homogeneously distributed on the inner walls by rotation and tilting on a shaking device (2 h at 30 rpm). With a compound concentration of 900 ppm, an inner surface of 44.7 cm^2 and a homogeneous distribution, a dose of 5 μg/cm^2 is achieved.
After the solvent has evaporated, each test tube is filled with 20-50 cattle tick larvae (Rhipicephalus microplus), closed with a perforated lid and incubated in a horizontal position at 85% relative humidity and 27° C. in an incubator. After 48 hours efficacy is determined. The larvae are patted on the ground of the tubes and negative geotactic behavior is recorded.
An efficacy of 100% means all larvae are dead or moribund; 0% means no larvae are dead or moribund.

[5] = tested on: larvae of the banded cucumber beetle (Diabrotica balteata); assay: Diabrotica balteata spray test; conditions: 168 h, 100 g/ha (=32 μg/well), wheat seeds, after 7 days, read-out: efficacy (seedling growth)
Method: Diabrotica Balteata—Spray Test
• Solvent: 78.0 parts by weight of acetone • 1.5 parts by weight of dimethylformamide • Emulsifier: alkylarylpolyglycol ether
Further test concentrations are prepared by dilution with emulsifier containing water.
Soaked wheat seeds (Triticum aestivum) are placed in a multiple well plate filled with agar and some water and are incubated for 1 day to germinate (5 seeds per well). The germinated wheat seeds are sprayed with a test solution containing the desired concentration of the active ingredient. Afterwards each unit is infected with 10-20 larvae of the banded cucumber beetle (Diabrotica balteata).
After 7 days efficacy in % is determined.

Structure (SMILES) | mortality at 100 g/ha [1] [%] | mortality at 100 g/ha [2] [%] | mortality at 100 g/ha [3] [%] | mortality at 500 g/ha [3] [%] | pest or weed control at 5 µg/cm2 [4] [%] | pest or weed control at 32 µg/disc, 100 g/ha [5] [%]
C[C@H](NC(=O)c1cc(OC(F)F)cc(S(=O)(=O)C2CC2)c1)c1ncnn1-c1ncc(C#N)s1 [I-50] | 90 | 100 | 90 | 100 | – | –
C[C@H](NC(=O)c1cc(C(F)F)cc(S(=O)(=O)C2CC2)c1)c1ncnn1-c1ncc(C#N)s1 [I-51] | 90 | 100 | 100 | 100 | – | –
C[C@H](NC(=O)c1cc(OC(F)F)cc(S(C)(=O)=O)c1)c1ncnn1-c1ncc(C#N)s1 [I-54, N-{(1S)-1-[1-(5-cyano-1,3-thiazol-2-yl)-1H-1,2,4-triazol-5-yl]ethyl}-3-(difluoromethoxy)-5-(methylsulfonyl)benzamide] | – | 100 | – | 100 | – | –
Cc1nc([C@H](C)NC(=O)c2cc(Cl)nc(C(F)(F)F)c2)n(-c2ncc(C(=O)N(C)C)s2)n1 [I-77] | – | 100 | – | – | 100 | 100
Cc1nc([C@H](C)NC(=O)c2cc(Cl)nc(C(F)(F)F)c2)n(-c2ncc(C(=O)N(C)CC#N)s2)n1 [I-80] | – | 100 | – | – | 100 | 100
C[C@H](NC(=O)c1cc(Cl)cc(C(F)(F)Br)c1)c1ncnn1-c1ncc(C#N)s1 [I-86] | 100 | 100 | – | – | – | 100
C[C@H](NC(=O)c1cc(C2CC2)cc(C(C)(F)F)c1)c1ncnn1-c1ncc(C#N)s1 [I-95] | 100 | 100 | – | – | – | 100
C[C@H](NC(=O)c1cc(OC(F)(F)F)cc(S(=O)(=O)C2CC2)c1)c1nc(C2CC2)nn1-c1ncc(C#N)s1 [I-104] | – | 100 | – | 90 | – | 100
CNC(=O)c1cnc(-n2ncnc2[C@H](C)NC(=O)c2cc(Br)cc(OC(F)(F)F)c2)s1 [I-111] | – | 100 | – | 100 | – | 100
C[C@H](NC(=O)c1cc(Br)cc(OC(F)F)c1)c1ncnn1-c1ncc(C(=O)N(C)C)s1 [I-115] | – | 100 | – | 90 | – | 100
C[C@H](NC(=O)c1cc(C(F)F)cc(C(F)F)c1)c1ncnn1-c1ncc(C(=O)N(C)C)s1 [I-117] | – | – | 100 | 100 | – | –
C[C@H](NC(=O)c1cc(Cl)cc(S(=O)(=O)C(F)F)c1)c1ncnn1-c1ncc(C(=O)N(C)C)s1 [I-121] | – | – | – | 100 | – | 100
C[C@H](NC(=O)c1cc(C(F)F)cc(S(=O)(=O)C2CC2)c1)c1nc(C2CC2)nn1-c1ncc(C#N)s1 [I-123] | – | 100 | – | 100 | – | 100
C[C@H](NC(=O)c1cc(Cl)cc(S(=O)(=O)C(F)F)c1)c1ncnn1-c1ncc(C#N)s1 [I-134] | – | 100 | – | 100 | – | 100
C[C@H](NC(=O)c1cc(OC(F)F)cc(S(=O)(=O)C(F)F)c1)c1ncnn1-c1ncc(C#N)s1 [I-136] | – | 100 | 100 | 100 | – | 100
C[C@H](NC(=O)c1cc(OC(F)F)cc(OC(F)F)c1)c1ncnn1-c1ncc(C(=O)N(C)C2CC2)s1 [I-148] | 90 | 100 | – | – | – | 100
C[C@H](NC(=O)c1cc(OC(F)(F)F)cc(C2CC2)c1)c1ncnn1-c1ncc(C(=O)N(C)C2CC2)s1 [I-152] | 90 | 100 | – | – | – | 100
C[C@H](NC(=O)c1cc(Br)cc(OC(F)F)c1)c1ncnn1-c1ncc(C(=O)N(C)C2CC2)s1 [I-154] | 90 | 100 | – | – | – | 100
C[C@H](NC(=O)c1cc(Cl)cc(OC(F)(F)F)c1)c1ncnn1-c1ncc(C(=O)N(C)C2CC2)s1 [I-155] | 90 | 100 | – | – | – | 100
Cc1nc([C@H](C)NC(=O)c2cc(Cl)cc(S(=O)(=O)C(F)F)c2)n(-c2ncc(C#N)s2)n1 [I-158] | – | 100 | – | 90 | – | 100
Cc1nc([C@H](C)NC(=O)c2cc(OC(F)(F)F)cc(S(=O)(=O)C(F)F)c2)n(-c2ncc(C#N)s2)n1 [I-161] | 100 | 100 | – | – | – | 100
Cc1nc([C@H](C)NC(=O)c2cc(OC(F)(F)F)cc(S(=O)(=O)C3CC3)c2)n(-c2ncc(C#N)s2)n1 [I-164] | – | 100 | – | – | – | 100
C[C@H](NC(=O)c1cc(C(F)(F)F)cc(Cl)n1)c1ncnn1-c1ncc(C#N)s1 [I-166] | – | 100 | – | 100 | – | 100
C[C@H](NC(=O)c1cc(Cl)cc(Cl)n1)c1ncnn1-c1ncc(C#N)s1 [I-167] | – | – | – | 100 | – | 100
C[C@H](NC(=O)c1cc(Cl)nc(C(F)(F)F)c1)c1ncnn1-c1ncc(C#N)s1 [I-168] | – | 100 | – | 100 | – | 100
C[C@H](NC(=O)c1cc(OC(F)(F)F)cc(C2(C#N)CC2)c1)c1nc(C2CC2)nn1-c1ncc(C#N)s1 [I-169] | – | 100 | – | 100 | – | 100
CNC(=O)c1cnc(-n2ncnc2[C@H](C)NC(=O)c2cc(OC(F)(F)F)cc(S(=O)(=O)C(F)F)c2)s1 [I-170] | – | 100 | – | 100 | – | 100
CNC(=O)c1cnc(-n2nc(C3CC3)nc2[C@H](C)NC(=O)c2cc(OC(F)(F)F)cc(C3CC3)c2)s1 [I-173] | – | – | – | 100 | – | 100
C[C@H](NC(=O)c1cncc(OC(F)(F)F)c1)c1ncnn1-c1ncc(C#N)s1 [I-174] | – | – | – | 100 | – | –
Cc1nc([C@H](C)NC(=O)c2cncc(OC(F)(F)F)c2)n(-c2ncc(C#N)s2)n1 [I-175] | – | – | – | 100 | – | –
